Drawing on patent publication EP4813980A1, “EP300/CBP REGULATOR, AND PREPARATION METHOD THEREFOR AND USE THEREOF” (Miracure Biotechnology Limited, priority 2023, dated 2025), this text covers IC50 for 19 molecules.

Common to all, as to experiment: Cell growth inhibition, CellTiter-Glo, 72 h
What all share (assay type): cell-based
In general terms: Cellular ATP, detected with luciferase, serves as a proxy for viable cell number.

The subject of one test is OPM-2 cells. The conditions noted are these: Homo sapiens, 72 h culture, mean of N=2. The protocol:
(§1) 22RV1, vCap, MM1S and OPM-2 cells were cultured in RPMI-1640 medium (10% fetal bovine serum and 100 units of penicillin/streptomycin dual-antibody per mL were added to RPMI-1640) in a cell incubator at 37°C with 5% CO2, respectively. Cells in logarithmic growth phase were seeded into 96-well cell culture plates at 5×10^3 cells/100 µL/well and cultured overnight. Active compounds dissolved in DMSO at different concentrations were added with a final concentration of 0.5% DMSO. 1% Tween 20 was used as positive control and 0.5% DMSO was used as negative control. After 72 h of culture, an equal volume of CellTiter-Glo was added to each well, mixed by shaking for 2 min, and left standing at room temperature for 10 min. […] signal values were read with a microplate reader. Data were analyzed and graphs were generated using Prism 7.0. The values shown are mean ± SEM (N=2). […] The formula for inhibition rate is as follows: % Inhibition = (Icompound−IZPE)/(IHPE−IZPE) × 100 [formula]
(§2) The X-axis is compound concentration (nM), and the Y-axis is % Inhibition.

A further test has as its system 22RV1 cells. The conditions noted are these: Homo sapiens, 72 h culture, mean of N=2. Here is the method:
as §1, §2

The subject of the next test is MM1S cells. The following applies: Homo sapiens, MM1.S, 72 h culture, mean of N=2. Here is the method:
as §1, §2

The next test has as its system vCap cells. The following applies: Homo sapiens, 72 h culture, mean of N=2. The protocol:
as §1, §2

`CC(=O)N1Cc2cc([C@H]3CC[C@@H](NC(=O)CCl)CC3)cc(N3CCCc4cc(-c5cnn(C)c5)c(C(F)F)cc43)c2C1` [Compound 1361]: the IC50 was found to be 1 nM in the test with OPM-2 cells, 106 nM in the test with 22RV1 cells and 2 nM in the test on MM1S cells.

As to `C=CS(=O)(=O)N[C@H]1CC[C@@H](n2nc(N3CCCc4cc(-c5cnn(C)c5)c(C(F)F)cc43)c3c2CCN(C(C)=O)C3)CC1` [Compound 1388, N-((1s,4s)-4-(5-acetyl-3-(7-(difluoromethyl)-6-(1-methyl-1H-pyrazol-4-yl)-3,4-dihydroquinolin-1(2H)-yl)-4,5,6,7-tetrahydro-1H-pyrazolo[4,3-c]pyridin-1-yl)cyclohexyl)ethenesulfonamide], the IC50 was found to be 1 nM in the test on OPM-2 cells, 15 nM with 22RV1 cells, 3 nM in the test on MM1S cells and 2 nM in the test with vCap cells.

As to `CC#CC(=O)N1CCC(c2cc3c(c(N4CCCc5cc(-c6cnn(C)c6)c(C(F)F)cc54)c2)CN(C(C)=O)C3)CC1` [Compound 1359], the IC50 in the test with OPM-2 cells came out at 15 nM; in the test on 22RV1 cells, 545 nM.

With `C=CS(=O)(=O)N[C@H]1CC[C@H](n2nc(N3CCCc4cc(-c5cnn(C)c5)c(C(F)F)cc43)c3c2CCN(C(=O)NC)C3)CC1` [Compound 1374, 3-(7-(difluoromethyl)-6-(1-methyl-1H-pyrazol-4-yl)-3,4-dihydroquinolin-1(2H)-yl)-N-methyl-1-((1r,4r)-4-(vinylsulfonamido)cyclohexyl)-1,4,6,7-tetrahydro-5H-pyrazolo[4,3-c]pyridine-5-carboxamide], the IC50 in the test on OPM-2 cells was found to be 1 nM; in the test on 22RV1 cells, 11 nM; with MM1S cells it was 1 nM; with vCap cells, 1 nM.

Consider `CC(=O)N1Cc2cc(C3CCN(Cc4ccc(COc5cccc6c5CN(C5CCC(=O)NC5=O)C6=O)cc4)CC3)cc(N3CCCc4cc(-c5cnn(C)c5)c(C(F)F)cc43)c2C1` (stereo not drawn) [Compound 2006, 3-[4-({4-[(4-{2-acetyl-7-[7-(difluoromethyl)-6-(1-methylpyrazol-4-yl)-3,4-dihydro-2H-quinolin-1-yl]-1 ,3-dihydroisoindol-5-yl}piperidin-1-yl)methyl]phenyl}methoxy)-1-oxo-3H-isoindol-2-yl]piperidine-2,6-dione], for which the IC50 in the test with OPM-2 cells was determined as 0.19 nM; in the test on 22RV1 cells, 0.47 nM; in the test on MM1S cells, 0.27 nM; in the test on vCap cells it was 0.4 nM.

In the case of `CC(=O)N1Cc2cc([C@H]3CC[C@@H](NC(=O)/C=C/CN(C)C)CC3)cc(N3CCCc4cc(-c5cnn(C)c5)c(C(F)F)cc43)c2C1` [Compound 1358], the IC50 with OPM-2 cells was determined as 39 nM; in the test with 22RV1 cells it was 4940 nM; in the test with MM1S cells it was 598 nM.

`CC(=O)N1Cc2cc(C3CCN(CC4CCN(c5ccc6c(c5)n(C)c(=O)n6C5CCC(=O)NC5=O)CC4)CC3)cc(N3CCCc4cc(-c5cnn(C)c5)c(C(F)F)cc43)c2C1` (stereo not drawn) [Compound 2068]: the IC50 in the test with OPM-2 cells worked out at 0.04 nM; with 22RV1 cells it was 0.06 nM; in the test with MM1S cells it was 0.07 nM; with vCap cells, 0.07 nM.

With `CC(=O)N1Cc2cc(C3CCN(c4cccc5c4CN(C4CCC(=O)NC4=O)C5=O)CC3)cc(N3CCCc4cc(-c5cnn(C)c5)c(C(F)F)cc43)c2C1` (stereo not drawn) [Compound 2080, 3-[4-(4-{2-acetyl-7-[7-(difluoromethyl)-6-(1-methylpyrazol-4-yl)-3,4-dihydro-2H-quinolin-1-yl]-1,3-dihydroisoindol-5-yl}piperidin-1-yl)-1-oxo-3H-isoindol-2-yl]piperidine-2,6-dione], the IC50 worked out at 0.52 nM in the test on OPM-2 cells, 3.97 nM in the test on 22RV1 cells, 1.16 nM in the test on MM1S cells and 1.17 nM with vCap cells.

As to `C=CS(=O)(=O)N1CCC(c2cc3c(c(N4CCCc5cc(-c6cnn(C)c6)c(C(F)F)cc54)c2)CN(C(C)=O)CC3)CC1` [Compound 1368], the IC50 was determined as 168 nM with OPM-2 cells and 1390 nM in the test on 22RV1 cells.

In the case of `CC(=O)N1Cc2cc([C@H]3CC[C@H](NC(=O)/C=C/CN(C)C)CC3)cc(N3CCCc4cc(-c5cnn(C)c5)c(C(F)F)cc43)c2C1` [Compound 1356], the results for the IC50 in the test with OPM-2 cells, with 22RV1 cells and in the test on MM1S cells were 53 nM, 4270 nM and 464 nM, respectively.

As for `C=CS(=O)(=O)N1CCC(n2nc(N3CCCc4cc(-c5cnn(C)c5)c(C5CC5)cc43)c3c2CCN(C(=O)NC)C3)CC1` [Compound 1378, 3-[7-cyclopropyl-6-(1-methylpyrazol-4-yl)-3,4-dihydro-2H-quinolin-1-yl]-1-(1-(vinylsulfonyl)piperidin-4-yl)-N-methyl-4H,6H,7H-pyrazolo[4,3-c]pyridine-5-carboxamide], the IC50 in the test with OPM-2 cells amounted to 2 nM; with 22RV1 cells, 10 nM; in the test on MM1S cells, 3 nM; in the test with vCap cells, 3 nM.

Consider `CNC(=O)N1CCc2cc(C3CCN(C(=O)CCCCCCCCNc4ccc5c(c4)n(C)c(=O)n5C4CCC(=O)NC4=O)CC3)cc(N3CCCc4cc(-c5cnn(C)c5)c(C(F)F)cc43)c2C1` (stereo not drawn) [Compound 2018], for which the IC50 in the test on OPM-2 cells was 0.05 nM; with 22RV1 cells, 0.01 nM; with MM1S cells, 0.1 nM; in the test on vCap cells, below 0.005 nM.

In the case of `CNC(=O)N1CCc2c(c(N3CCCc4cc(-c5cnn(C)c5)c(C(F)F)cc43)nn2C2CCOCC2)C1` [GNE-781], the IC50 stood at 8 nM with OPM-2 cells, 4240 nM in the test on 22RV1 cells, 104 nM in the test with MM1S cells and 2150 nM in the test with vCap cells.

As to `C=CS(=O)(=O)N[C@H]1CC[C@@H](n2nc(N3CCCc4cc(-c5cnn(C)c5)c(C(F)F)cc43)c3c2CCN(C(=O)NC)C3)CC1` [Compound 1375, 3-(7-(difluoromethyl)-6-(1-methyl-1H-pyrazol-4-yl)-3,4-dihydroquinolin-1(2H)-yl)-N-methyl-1-((1s,4s)-4-(vinylsulfonamido)cyclohexyl)-1,4,6,7-tetrahydro-5H-pyrazolo[4,3-c]pyridine-5-carboxamide], the IC50 in the test on OPM-2 cells turned out to be 1 nM; in the test on 22RV1 cells, 16 nM; in the test on MM1S cells, 2 nM; in the test on vCap cells, 2 nM.

`CC(=O)N1Cc2cc(C3CCN(CC4CCN(c5ccc6c(c5)CN(C5CCC(=O)NC5=O)C6=O)CC4)CC3)cc(N3CCCc4cc(-c5cnn(C)c5)c(C(F)F)cc43)c2C1` (stereo not drawn) [Compound 2058]: the IC50 with OPM-2 cells came to 0.23 nM; in the test on 22RV1 cells, 0.31 nM; in the test on MM1S cells, 0.3 nM; with vCap cells it was 0.29 nM.

On to `CC(=O)N1Cc2cc(C3CCN(CC4CCN(CCNc5ccc6c(c5)CN(C5CCC(=O)NC5=O)C6=O)CC4)CC3)cc(N3CCCc4cc(-c5cnn(C)c5)c(C(F)F)cc43)c2C1` (stereo not drawn) [Compound 2062], for which the figures for the IC50 with 22RV1 cells, in the test on MM1S cells and with vCap cells were 0.24 nM, 0.04 nM and 0.06 nM, respectively.

In the case of `CC(=O)N1Cc2cc(C3CCN(CC4CCN(CCOc5cccc6c5CN(C5CCC(=O)NC5=O)C6=O)CC4)CC3)cc(N3CCCc4cc(-c5cnn(C)c5)c(C(F)F)cc43)c2C1` (stereo not drawn) [Compound 2054], the IC50 came out at 0.84 nM in the test on 22RV1 cells, 0.33 nM in the test on MM1S cells and 0.26 nM with vCap cells.

Take `C=C(F)C(=O)N1CCC(c2cc3c(c(N4CCCc5cc(-c6cnn(C)c6)c(C(F)F)cc54)c2)CN(C(C)=O)C3)CC1` [Compound 1365]: the IC50 was determined as 30 nM in the test on OPM-2 cells and 3350 nM in the test with 22RV1 cells.

With `CC(=O)N1Cc2cc(C3CCN(CCC4CCN(c5ccc6c(c5)CN(C5CCC(=O)NC5=O)C6=O)CC4)CC3)cc(N3CCCc4cc(-c5cnn(C)c5)c(C(F)F)cc43)c2C1` (stereo not drawn) [Compound 2069], the results for the IC50 with 22RV1 cells and in the test on MM1S cells were 0.38 nM and 0.36 nM, respectively.

As a reminder, the IC50 is the point on the concentration scale where inhibition reaches its midpoint. Read a low IC50 as greater potency.
